Values after ≈ are worked out from the molar mass of the structure shown. “Also recorded” adds a separate entry of the source. Read-outs that look alike come from different tables or passages of the source.

The test system of data set [1] is RAW264.7 murine macrophage cells.
The subject of a further data set is F. novicida strain U112. Description: microbe, parasite or virus in culture. The format is cell-based, F. tularensis subspecies novicida.
The subject of data set [2] is live vaccine strain (LVS, type B). Description: microbe, parasite or virus in culture. It counts as cell-based, F. tularensis.
The test system of data set [3] is Escherichia coli (ATCC 25922). It counts as cell-based.
In data set [4] the test system is Salmonella enterica serovar Typhimurium (ATCC 14028). The format is cell-based.
Data set [5] deals with F. tularensis strain Schu S4 (type A). Description: microbe, parasite or virus in culture. It counts as cell-based.
Data set [6] deals with intracellular F. novicida in RAW264.7 murine macrophages. The format is cell-based.
Data set [7] relates to intracellular F. tularensis (type A, Schu S4) in TPA-treated THP-1 cells. The format is cell-based.
In data set [8] the test system is intracellular F. novicida in TPA-differentiated human THP-1 macrophages. The format is cell-based.
The mark [9] stands for this setting: Francisella tularensis, U112, 24 h.

On to `NS(=O)(=O)c1ccc(-n2nc(C(F)(F)F)cc2-c2ccc(-c3cc(Cl)c(Cl)cc3Cl)cc2)cc1` [Compound 12, 4-[5-(2′,4′,5′-Trichloro-biphenyl-4-yl)-3-trifluoromethyl-pyrazol-1-yl]-benzenesulfonamide], for which the cytotoxicity for macrophages result in [1] was “showed cytotoxicity for macrophages”. The MIC against F. novicida strain U112 (setting [9]) was not above 4 µg/mL.
In the case of `NS(=O)(=O)c1ccc(-n2nc(C(F)(F)F)cc2-c2ccc(-c3ccc(Cl)cc3)cc2)cc1` [Compound 11, 4-[5-(4′-Chloro-biphenyl-4-yl)-3-trifluoromethyl-pyrazol-1-yl]-benzenesulfonamide], the MIC in [2] (Francisella tularensis, 48 h) is not above 4 µg/mL; in the data set on F. novicida strain U112 (setting [9]), not above 4 µg/mL.
With `NC(=O)c1ccc(-n2nc(C(F)(F)F)cc2-c2ccc(-c3ccc(Cl)cc3)cc2)cc1` [Compound 2, 4-[5-(4′-Chloro-biphenyl-4-yl)-3-trifluoromethyl-pyrazol-1-yl]-benzamide], the MIC in data set [2] (Francisella tularensis, 48 h) was not above 4 µg/mL; against F. novicida strain U112 (setting [9]), not above 4 µg/mL.
As to `Nc1ccc(-n2nc(C(F)(F)F)cc2-c2ccc(-c3ccccc3)cc2)cc1` [Compound 16, 4-(5-Biphenyl-4-yl-3-trifluoromethyl-pyrazol-1-yl)-phenylamine], the MIC in data set [2] (Francisella tularensis, 48 h) was not above 4 µg/mL; against F. novicida strain U112 (setting [9]), not above 4 µg/mL.
Turning to `CS(=O)(=O)c1ccc(C2=C(c3ccccc3)C(=O)OC2)cc1` [rofecoxib], the effect on bacteria entry (in data set [2]; in [3]; in data set [4]; in [5]; in the data set on F. novicida strain U112) was “no appreciable effect” in each case.
With `Cc1ccc(-c2cc(C(F)(F)F)nn2-c2ccc(S(N)(=O)=O)cc2)cc1` [celecoxib, 4-[5-(4-methylphenyl)-3-(trifluoromethyl)pyrazol-1-yl]benzenesulfonamide, reference compound], the “decrease in CFU” value (in [2]; in the data set with F. novicida strain U112) was “≧log decrease in CFU” each time. Further, the MIC in data set [2] (Francisella tularensis, 48 h) is 16 µg/mL (≈ 42 µM); in data set [5] (Francisella tularensis, 24 h) it was 16 µg/mL (≈ 42 µM). Further, in data set [3], the “activity against E. coli” value was “inactive”. For the same molecule, in data set [4], the “activity against S. enterica serovar Typhimurium” value is “inactive”.
Consider `Nc1ccc(-n2nc(C(F)(F)F)cc2-c2ccc(-c3ccc(Br)cc3)cc2)cc1` [Compound 20, 4-[5-(4′-Bromo-biphenyl-4-yl)-3-trifluoromethyl-pyrazol-1-yl]-phenylamine], for which the MIC in [2] (Francisella tularensis, 48 h) is not above 4 µg/mL; against F. novicida strain U112 (setting [9]), not above 4 µg/mL. Also, the “activity against E. coli” value in data set [3] is “inactive”. Moreover, the “inhibition of intracellular F. novicida survival” value in data set [6] and in data set [8] was “effectively inhibits; also recorded: could inhibit the survival of intracellular Francisella” throughout. Further, the “inhibition of intracellular Schu S4 survival” value in data set [7] is “significant inhibitory effect”. Further, in [4], the “activity against S. enterica serovar Typhimurium” value is “inactive”.
In the case of `Nc1ccc(-n2nc(C(F)(F)F)cc2-c2ccc(-c3cc(Cl)c(Cl)cc3Cl)cc2)cc1` [Compound 17, 4-[5-(2′,4′,5′-Trichloro-biphenyl-4-yl)-3-trifluoromethyl-pyrazol-1-yl]-phenylamine], the MIC entry in data set [2] is on record as “potent inhibitor”; against F. novicida strain U112, “no measurable inhibitory effect”.

Values taken from US8580827B2 (priority 2009, dated 2013).
